According to US20110190365A1, “Insecticidal 4-phenyl-1H-pyrazoles” (Bayer Crop Science AG, priority 2008, published 2011):

Experiment: log P by HPLC on a reversed-phase column (C18), EEC Directive 79/831 Annex V.A8
Format: physicochemical
Settings: HCOOH
Procedure: The stated log P values were determined in accordance with EEC Directive 79/831 Annex V.A8 by HPLC (High Performance Liquid Chromatography) using a reversed-phase column (C18).

Compound	log P (HCOOH)
Cc1cc(-n2nc(C(F)(F)F)c(-c3cc(Cl)cc(Cl)c3)c2N)ccc1C(=O)NCc1ncc(Cl)cc1C(F)(F)F [I-A-Q2-235]	I-A-Q2-235: log P (HCOOH): 4.95
Cc1cccc(CNC(=O)c2ccc(-n3nc(C(F)(F)F)c(-c4cc(Cl)cc(Cl)c4)c3N)cc2C)n1 [I-A-Q2-042]	I-A-Q2-042: log P (HCOOH): 2.93
CCNC(=O)c1ccc(-n2nc(C(F)(F)F)c(-c3cc(Cl)cc(Cl)c3)c2N)cc1C [I-A-Q2-270]	I-A-Q2-270: log P (HCOOH): 3.84
Cc1cc(-n2nc(C(F)(F)F)c(I)c2N)ccc1C(=O)NCC(F)(F)C(F)F [XI-A-094]	XI-A-094: log P (HCOOH): 3.08
Cc1cc(-n2nc(C(F)(F)c3cccc(C(F)(F)F)c3)c(-c3cc(Cl)cc(C(F)(F)F)c3)c2N)ccc1C(=O)NCC(F)(F)C(F)F [I-A-Q2-286]	I-A-Q2-286: log P (HCOOH): 4.89
Cc1cc(-n2nc(C(F)(F)F)c(-c3cc(Cl)cc(Cl)c3)c2N)ccc1C(=O)NCc1cccc(N2CCOCC2)n1 [I-A-Q2-280]	I-A-Q2-280: log P (HCOOH): 3.96
Cc1cc(-n2nc(C(F)(F)F)c(-c3cc(F)cc(Cl)c3)c2N)ccc1C(=O)NCc1ccccn1 [I-A-Q2-344]	I-A-Q2-344: log P (HCOOH): 2.84
N#Cc1cc(-n2nc(C(F)(F)F)cc2N)ccc1-n1cncn1 [XI-A-079]	XI-A-079: log P (HCOOH): 2.80
Cc1cc(-n2nc(C(F)(F)F)c(-c3cc(Cl)cc(Cl)c3)c2N)ccc1C(=O)N(C)C(C)c1cccnc1 (stereo not drawn) [I-A-Q2-208]	I-A-Q2-208: log P (HCOOH): 3.19
Cc1cc(-n2nc(C(F)(F)Oc3ccc(Cl)c(Cl)c3)c(-c3cc(Cl)cc(C(F)(F)F)c3)c2N)ccc1C(=O)NCC(F)(F)C(F)F [I-A-Q2-300]	I-A-Q2-300: log P (HCOOH): 5.40
Cc1cc(-n2nc(C(F)(F)F)c(-c3cccc(Br)c3)c2N)ccc1C(=O)NCC(F)(F)C(F)F [I-A-Q2-314]	I-A-Q2-314: log P (HCOOH): 3.65
CC(NC(=O)c1ccc(-n2nc(C(F)(F)F)c(-c3cc(Cl)cc(Cl)c3)c2N)nc1)c1ccccn1 (stereo not drawn) [I-A-Q2-102]	I-A-Q2-102: log P (HCOOH): 4.06
Cc1cc(-n2nc(C(F)(F)F)c(-c3cc(Cl)cc(Cl)c3)c2N)ccc1C(=O)NCc1ccccc1F [I-A-Q2-112]	I-A-Q2-112: log P (HCOOH): 4.34
Cc1cc(-n2nc(C(F)(F)F)c(-c3cc(Cl)cc(Cl)c3)c2N)ccc1C(=O)NCC(F)(F)C(F)(F)F [I-A-Q2-269]	I-A-Q2-269: log P (HCOOH): 4.57
Cc1cc(-n2nc(C(F)(F)F)c(-c3ccc(Cl)c(Cl)c3)c2N)ccc1C(=O)NCc1ccccn1 [I-A-Q2-347]	I-A-Q2-347: log P (HCOOH): 3.11
Cc1cc(-n2nc(C(F)(F)F)c(-c3ccc(F)c(Cl)c3)c2N)ccc1C(=O)NCC(F)(F)C(F)F [I-A-Q2-309]	I-A-Q2-309: log P (HCOOH): 3.65
CC(NC(=O)c1ccc(-n2nc(C(F)(F)F)c(-c3ccc(Cl)c(F)c3)c2N)cc1)C(F)(F)F (stereo not drawn) [I-A-Q2-166]	I-A-Q2-166: log P (HCOOH): 3.84
Cc1cc(-n2nc(C(F)(F)F)c(Br)c2N)ccc1C(=O)NCc1ccccn1 [XI-A-093]	XI-A-093: log P (HCOOH): 1.98
CC(NC(=O)c1ccc(-n2nc(C(F)(F)F)c(-c3ccc(F)c(F)c3)c2N)cc1)C(F)(F)F (stereo not drawn) [I-A-Q2-175]	I-A-Q2-175: log P (HCOOH): 3.47
Cc1cc(-n2nc(C(F)(F)F)c(-c3cccc(Br)c3)c2N)ccc1C(=O)NCC1CC1 [I-A-Q2-416]	I-A-Q2-416: log P (HCOOH): 3.81

Compound	log P (HCOOH)
Nc1c(-c2ccc(F)c(F)c2)c(C(F)(F)F)nn1-c1ccc(C(=O)NC2CC2)cc1 [I-A-Q2-176]	I-A-Q2-176: log P (HCOOH): 2.89
Cc1cc(C)cc(-c2c(C(F)(F)F)nn(-c3ccc(C(=O)NC4CC4)cc3)c2N)c1 [I-A-Q2-179]	I-A-Q2-179: log P (HCOOH): 3.24
CC(NC(=O)c1ccc(-n2nc(C(F)(F)F)c(-c3cccc(F)c3)c2N)cc1)c1ccccn1 (stereo not drawn) [I-A-Q2-186]	I-A-Q2-186: log P (HCOOH): 2.42
Cc1cc(-n2nc(C(F)(F)F)c(-c3cc(Cl)cc(Cl)c3)c2N)ccc1C(=O)NC1CCCC1 [I-A-Q2-223]	I-A-Q2-223: log P (HCOOH): 4.45
Cc1cc(-n2nc(C(F)(F)F)c(-c3cc(C(F)(F)F)cc(C(F)(F)F)c3)c2N)ccc1C(=O)NCC(F)(F)C(F)F [I-A-Q2-318]	I-A-Q2-318: log P (HCOOH): 4.23
Cc1cc(C)nc(CNC(=O)c2ccc(-n3nc(C(F)(F)F)c(-c4cc(Cl)cc(Cl)c4)c3N)cc2C)n1 [I-A-Q2-245]	I-A-Q2-245: log P (HCOOH): 3.89
Cc1cc(-n2nc(C)c(-c3cc(Cl)ccc3Cl)c2N)ccc1C(=O)NCC(F)(F)C(F)F [I-A-Q2-335]	I-A-Q2-335: log P (HCOOH): 3.04
Cc1cc(-n2nc(C3CCCO3)c(-c3cc(Cl)cc(C(F)(F)F)c3)c2N)ccc1C(=O)NCC(F)(F)C(F)F (stereo not drawn) [I-A-Q2-290]	I-A-Q2-290: log P (HCOOH): 4.00
Cc1cc(-n2nc(C(F)(F)F)c(-c3cc(Cl)cc(Cl)c3)c2N)ccc1C(=O)NCCOC(C(F)(F)F)C(F)(F)F [I-A-Q2-048]	I-A-Q2-048: log P (HCOOH): 4.70
Cc1cc(-n2nc(C(F)(F)F)c(-c3cc(Cl)cc(Cl)c3)c2[S+](C)[O-])ccc1C(=O)NCC(F)(F)C(F)F (single isomer, unassigned) [I-A-Q2-283]	I-A-Q2-283: log P (HCOOH): 4.12
Cc1cc(-n2nc(C(F)(F)F)c(-c3cc(Cl)cc(Cl)c3)c2N)ccc1C(=O)NCc1ccc(C(F)(F)F)nc1 [I-A-Q2-060]	I-A-Q2-060: log P (HCOOH): 4.34
Cc1ncc(CNC(=O)c2ccc(-n3nc(C(F)(F)F)c(-c4cc(Cl)cc(Cl)c4)c3N)cc2C)c(N)n1 [I-A-Q2-053]	I-A-Q2-053: log P (HCOOH): 2.04
COC(=O)c1ccc(-n2nc(C(F)(F)F)c(Cl)c2N)cc1C [XI-A-081]	XI-A-081: log P (HCOOH): 2.76
CC(C)NC(=O)c1ccc(-n2nc(C(F)(F)F)c(-c3ccc(Cl)cc3)c2N)cc1 [I-A-Q2-161]	I-A-Q2-161: log P (HCOOH): 3.37
Cc1cc(-n2nc(C(F)(F)F)c(-c3cc(Cl)cc(Cl)c3)c2N)ccc1C(=O)NC(c1ccc(C(F)(F)F)cc1)C(F)(F)F (stereo not drawn) [I-A-Q2-242]	I-A-Q2-242: log P (HCOOH): 5.29
Cc1cc(-n2nc(C3CC3)c(-c3ccc(Cl)cc3)c2N)ccc1C(=O)NCc1ccccn1 [I-A-Q2-381]	I-A-Q2-381: log P (HCOOH): 2.46
Cc1cc(-n2nc(C(F)(F)F)c(-c3cc(Cl)cc(Cl)c3)c2N)ccc1C(=O)NCc1cccc(F)c1 [I-A-Q2-214]	I-A-Q2-214: log P (HCOOH): 4.45
Cc1cc(-n2nc(C(F)(F)F)c(-c3cc(Cl)cc(Cl)c3)c2N)ccc1C(=O)N(C)C(C)c1ccccn1 (stereo not drawn) [I-A-Q2-210]	I-A-Q2-210: log P (HCOOH): 4.28
Cc1cc(-n2nc(C(F)(F)F)c(-c3cc(Cl)cc(Cl)c3)c2N)ccc1C(=O)NC(c1cc(Cl)cc(Cl)c1)C(F)(F)F (stereo not drawn) [I-A-Q2-043]	I-A-Q2-043: log P (HCOOH): 5.65

Same assay, conditions: HCOOH; Table 4, compounds of formula I-A-Q4

Compound	log P (HCOOH)
Cc1ccc(-c2c(C(F)(F)F)nn(-c3ccc(Cl)cn3)c2N)cc1 [I-A-Q4-055]	I-A-Q4-055: log P (HCOOH): 4.83
Cc1nn(-c2ccc(Cl)cn2)c(N)c1-c1c(F)cccc1F [I-A-Q4-036]	I-A-Q4-036: log P (HCOOH): 3.58
Cc1nn(-c2ccc(Cl)cn2)c(N)c1-c1c(Cl)cccc1Cl [I-A-Q4-029]	I-A-Q4-029: log P (HCOOH): 4.05
Cc1nn(-c2ccc(Cl)cn2)c(N)c1-c1ccc(Cl)c(Cl)c1 [I-A-Q4-060]	I-A-Q4-060: log P (HCOOH): 5.02
Nc1c(-c2ccc(Cl)cc2)c(C2CC2)nn1-c1ccc(Cl)cn1 [I-A-Q4-024]	I-A-Q4-024: log P (HCOOH): 5.36
Cc1nn(-c2ccc(Cl)cn2)c(N)c1-c1ccc(F)cc1F [I-A-Q4-035]	I-A-Q4-035: log P (HCOOH): 3.78
CCc1nn(-c2ccc(Cl)cn2)c(N)c1-c1ccc(Cl)cc1 [I-A-Q4-026]	I-A-Q4-026: log P (HCOOH): 5.02
Cc1cc(C)cc(-c2c(C(F)(F)F)nn(-c3ccc(C(=O)O)cc3)c2N)c1 [I-A-Q4-090]	I-A-Q4-090: log P (HCOOH): 3.42
Nc1c(-c2ccc(F)c(Cl)c2)c(C(F)(F)F)nn1-c1ccc(C(=O)O)cc1 [I-A-Q4-094]	I-A-Q4-094: log P (HCOOH): 3.31
COC(=O)c1ccc(-n2nc(C(F)(F)F)c(-c3cc(Cl)cc(Cl)c3)c2N)cc1Cl [I-A-Q4-104]	I-A-Q4-104: log P (HCOOH): 5.07
Nc1c(-c2ccc(Cl)cc2)c(-c2ccccc2)nn1-c1ccc(Cl)cn1 [I-A-Q4-028]	I-A-Q4-028: log P (HCOOH): 5.64
Nc1c(-c2cc(Cl)cc(C(F)(F)F)c2)c(C(F)(F)Cl)nn1-c1ccc(Cl)cn1 [I-A-Q4-059]	I-A-Q4-059: log P (HCOOH): 5.81
Nc1c(-c2cccc(F)c2)c(C(F)(F)F)nn1-c1ccc(Cl)cn1 [I-A-Q4-049]	I-A-Q4-049: log P (HCOOH): 4.51
Nc1c(-c2cccc(F)c2)c(C(F)(F)F)nn1-c1ccc(C(=O)O)cc1 [I-A-Q4-097]	I-A-Q4-097: log P (HCOOH): 2.88

Same assay, conditions: HCOOH; compounds of the formula (IX), Table 11

Compound	log P (HCOOH)
CC(=O)Nc1[nH]nc(C(F)(F)F)c1-c1cc(Cl)cc(Cl)c1 [IX-203]	IX-203: log P (HCOOH): 2.98

Same assay, conditions: HPLC, reversed-phase C18, mobile phase with formic acid

Compound	log P (HCOOH)
N#Cc1cc(-n2nc(-c3ccccc3)c(-c3ccc(Cl)cc3)c2N)ccc1-n1cncn1 [I-A-Q1-063]	I-A-Q1-063: log P (HCOOH): 3.53
N#Cc1cc(-n2nc(C(F)(F)F)c(-c3cc(Cl)cc(Cl)c3)c2N)ccc1-n1cncn1 [I-A-Q1-024]	I-A-Q1-024: log P (HCOOH): 3.90
N#Cc1cc(-n2nc(C(F)(F)F)c(-c3cc(Cl)cc(Cl)c3)c2N)ccc1-n1ccnc1 [I-A-Q1-076]	I-A-Q1-076: log P (HCOOH): 2.98
Cc1nn(-c2ccc(-n3cncn3)c(C#N)c2)c(N)c1-c1ccc(Cl)cc1 [I-A-Q1-029]	I-A-Q1-029: log P (HCOOH): 2.65
COC(C)c1nn(-c2ccc(-n3cncn3)c(C#N)c2)c(N)c1-c1cc(Cl)cc(C(F)(F)F)c1 (stereo not drawn) [I-A-Q1-023]	I-A-Q1-023: log P (HCOOH): 2.76

Same assay, conditions: HPLC, reversed-phase C18, mobile phase with formic acid; read-out: log P (HCOOH)

Compound	chromatographic logP
CCOC(=O)c1ccc(-n2nc(C(F)(F)F)c(-c3ccc(Cl)c(Cl)c3)c2N)cc1C [I-A-Q4-013, Ethyl 4-[5-amino-4-(3,4-dichlorophenyl)-3-(trifluoromethyl)-1H-pyrazol-1-yl]-2-methylbenzoate]	5.24
